The record followed here is article PMC9181982, “Biphenyl Ether Analogs Containing Pomalidomide as Small-Molecule Inhibitors of the Programmed Cell Death-1/Programmed Cell Death-Ligand 1 Interaction” (Molecules, 2022).

The target in one assay is T1, PD-1/PD-L1 complex (Homo sapiens, UniProt Q9NZQ7).
T1 construct: purchased Cis-Bio
Kind of assay: HTRF (homogeneous time-resolved fluorescence) PD-1/PD-L1 binding assay (Cis-Bio). To be noted: for HTRF: Percentage of the Dissociated PD-1/PD-L1 Complex, 0.5 µM Ligand Conc. / HTRF: Percentage of the Dissociated PD-1/PD-L1 Complex, 5 µM Ligand Conc. / inhibition at 0.5 µM / inhibition at 5 µM: 5 nM hPD-L1, 50 nM hPD-1; for HTRF: Percentage of the Dissociated PD-1/PD-L1 Complex, 0.5 µM Ligand Conc. / inhibition at 0.5 µM: 0.5 µM ligand; for inhibition at 0.5 µM: read-out: HTRF: Percentage of the Dissociated PD-1/PD-L1 Complex, 0.5 µM Ligand Conc.; for HTRF: Percentage of the Dissociated PD-1/PD-L1 Complex, 5 µM Ligand Conc. / inhibition at 5 µM: 5 µM ligand; for inhibition at 5 µM: read-out: HTRF: Percentage of the Dissociated PD-1/PD-L1 Complex, 5 µM Ligand Conc. How it is done:
To validate the activity toward PD-L1 of our compounds, we carried out an HTRF (homogeneous time-resolved fluorescence) experiment at two concentrations of the ligand (5 µM and 0.5 µM) (Table 1).
HTRF was carried out using a certified Cis-Bio assay according to the manufacturer’s guidelines. The experiments were carried out at 5 nM of h-L1 and 50 nM of hPD-1 in the final formulation at the 20 µL final volume in the well. To determine the half maximal inhibitory concentrations (IC50) of the tested compounds, the measurements were carried out on two individual dilution series unless stated otherwise. After mixing all the components according to the Cis-Bio protocol, the plate was left for 2 h incubation at room temperature followed by the TR-FRET measurement on a Tecan Spark 20M. […] The collected data was background-subtracted from the negative control, normalized on the positive control, averaged, and fitted with the normalized Hill’s equation to determine the IC50 value using Mathematica 12 (Princeton, NJ, USA).
On the technique in general: Time-resolved FRET reads energy transfer from a long-lived donor to a nearby acceptor.

The target in a further assay is T2, PD-L1 protein (Homo sapiens, UniProt Q9NZQ7).
T2 construct: PD-L1 gene (amino acids 18–239); made in house; host or cells: E. coli BL21
T2 sequence (Q9NZQ7 18-239): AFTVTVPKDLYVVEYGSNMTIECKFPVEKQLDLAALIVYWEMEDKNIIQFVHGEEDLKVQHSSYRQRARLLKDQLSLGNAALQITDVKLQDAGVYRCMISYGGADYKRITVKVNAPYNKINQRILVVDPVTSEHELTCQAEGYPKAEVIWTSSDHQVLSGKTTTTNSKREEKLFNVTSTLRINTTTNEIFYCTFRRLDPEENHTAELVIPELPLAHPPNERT
The experiment in a line: 1H NMR binding analysis, PD-L1 protein titrated with ligand. Conditions: 1H NMR titration; compound 6 at protein–ligand ratio 1:10. How it is done:
Apart from the HTRF assay, we performed the NMR [33, 34] binding analysis by recording the ^1H spectrum of the PD-L1 protein titrated with compound 4 (Figure 1).
The E. coli strain BL21 was transformed with a pET-21b plasmid carrying the PD-L1 gene (amino acids 18–239). The bacteria were cultured in LB at 37 °C until OD600nm of 0, 6 when the recombinant protein production was induced with 1 mM IPTG. The protein production continued overnight. The inclusion bodies were collected by centrifugation, washed twice with 50 mM Tris HCl, pH 8.0, containing 200 mM NaCl, 10 mM EDTA, 10 mM 2-mercaptoethanol, and 0.5% Triton X-100, followed by a single wash with the same buffer but with no Triton X-100. The washed inclusion bodies were resuspended overnight in 50 mM Tris HCl, pH 8.0, 6 M GuHCl, 200 mM NaCl, and 10 mM 2-mercaptoethanol and clarified with centrifugation. Refolding of PD-L1 was performed by dropwise dilution into 0.1 M Tris HCl, pH 8.0, containing 1 M L-arginine hydrochloride, 0.25 mM oxidized glutathione, and 0.25 mM reduced glutathione. The refolded protein was dialyzed three times against 10 mM Tris HCl, pH 8.0, containing 20 mM NaCl and purified by size exclusion chromatography using Superdex 75 and a dialysis buffer. The quality of the refolded protein was evaluated by SDS-PAGE and NMR.
NMR spectra were recorded in PBS, pH 7.4, containing 10% (v/v) of D2O added to the samples to provide the lock signal. Water suppression was carried out using the WATERGATE sequence. All the spectra were recorded at 300 K using a Bruker Avance 600 MHz spectrometer with the Cryo-Platform. The NMR spectrum was recorded at three different ligand/protein ratios from 0 to 10. The samples were prepared by adding small amounts of a 50 mM ligand stock solution in DMSO to the protein solution (0.20 mL) of the PD-L1 fragment at a concentration of 0.14 mM. The acquisition parameters for each spectrum were as follows: size of FID32768, number of scans: 32. The spectra were visualized using TopSpin 4.0.2. (Bruker, Billerica, MA, USA)

In assay [1] the test system is PD-1/PD-L1 blockade, Jurkat effector cells / CHO/TCRAct/PD-L1 cells. The experiment in a line: Immune checkpoint blockade (ICB) assay (Promega): Jurkat ECs co-cultured with CHO/TCRAct/PD-L1 cells, NFAT luciferase readout. It is filed as cell-based, human. To be noted: for Promega Assay (active / not active): cell-based PD-1/PD-L1 blockade bioassay. As for the experimental part:
In order to explore the bioactivity of the synthesized compounds, a well-recognized immune checkpoint blockade (ICB) assay was performed. In the assay, artificial T cells, the Jurkat effector cells (Jurkat ECs), i.e., the Jurkat T cells overexpressing PD-1 and luciferase-coding gene under the control of the TCR-inducible NFAT response element, are contacted with artificial antigen-presenting CHO/TCRAct/PD-L1 cells, as illustrated in [31]. The latter is the CHO cells equipped with the TCR activator molecule, which delivers activation of Jurkat ECs, and also the PD-L1 protein, which provides a negative signal towards the activation of Jurkat ECs. Upon the blockade of the PD-1/PD-L1 interaction, activation of Jurkat ECs is increased, as we have shown before for several classes of therapeutic antibodies and small molecules.
The human PD-L1-expressing CHO-K1 cells overexpressing TCR activator (CHO/TCRAct/PD-L1) cells and Jurkat ECs T cells overexpressing PD-1 and carrying a luciferase reporter gene under the control of the Nuclear Factor of Activated T cells Response Element (NFAT-RE) were obtained from Promega and cultured in an RPMI-1640 medium (Biowest, Nuaillé, France) supplemented with 10% fetal bovine serum (FBS, Biowest, Nuaillé, France) and […] L-glutamine (Biowest, Nuaillé, France). G418 (250 µg/mL, InvivoGen, San Diego, CA, USA) and Hygromycin B Gold (50 µg/mL, InvivoGen, San Diego, CA, USA) were also added to the culture medium as selection antibiotics. CAKI 2, LNCap, PC-3, and MDA-MB-231 cells were purchased from the European Collection of Authenticated Cell Cultures (ECACC) and cultured according to the provided protocol.
For the analysis of biological activity of the analyzed compounds, an immune checkpoint blockade (ICB) assay was performed. For this, the culture of Jurkat effector cells (Jurkat-ECs) and […] was carried out. The assay was performed according to the protocol described in our previous works. All the experiments were performed three times as independent experiments.
Figure 2 Bioactivity of the indicated compounds. (A,B) The activity was monitored with a cell-based immune checkpoint blockade (ICB) assay. Jurkat ECs were contacted with pre-seeded CHO/TCRAct/PD-L1 cells in the presence of the indicated concentrations of the compounds (A) or durvalumab (B) as a positive control. The cells were co-cultured for 6 h and the luminescence signal was measured following the addition of the Bio-Glo substrate. The graphs show fold induction calculated versus either DMSO-treated (for small molecules) or untreated (for durvalumab) control (ctrl) cells. The results are mean ± SD from three independent experiments. […] (C) Analysis of the expression of PD-L1 in four human cancer cell lines compared to PD-L1-overexpressing CHO/TCRAct/PD-L1 cells. (D) Analysis of the expression of PD-L1 in MDA-MB-231 cells treated with either 4 or 5 compounds for 6 or 24 h.

T1 sequence (Q9NZQ7 19-238 limits assumed, one chain of several): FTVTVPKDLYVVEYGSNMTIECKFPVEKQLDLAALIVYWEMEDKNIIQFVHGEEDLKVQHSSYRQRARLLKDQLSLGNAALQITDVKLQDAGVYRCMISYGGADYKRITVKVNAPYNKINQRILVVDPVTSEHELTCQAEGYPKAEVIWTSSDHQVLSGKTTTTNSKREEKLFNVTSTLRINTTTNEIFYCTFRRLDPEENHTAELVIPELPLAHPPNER

As to `Cc1c(COc2cc(OCc3cccc(C#N)c3)c(CN3C[C@H](O)C[C@@H]3C(=O)O)cc2Cl)cccc1-c1ccc2c(c1)OCCO2` [BMS-1166, reference compound], on PD-1/PD-L1 complex, the “HTRF: Percentage of the Dissociated PD-1/PD-L1 Complex, 0.5 µM Ligand Conc.” value is 100% and the “HTRF: Percentage of the Dissociated PD-1/PD-L1 Complex, 5 µM Ligand Conc.” value is reported as 100%. In addition, on PD-L1 protein, the “Protein precipitation during NMR titration” value is listed as “not observed”.
With `Cc1c(COc2cc(OCc3cccc(C#N)c3)c(CN3C[C@H](O)C[C@@H]3C(=O)NCC3CCN(CC(=O)Nc4cccc5c4C(=O)N(C4CCC(=O)NC4=O)C5=O)CC3)cc2Cl)cccc1-c1ccc2c(c1)OCCO2` (stereo partly drawn) [compound 1, (2R,4R)-1-(5-chloro-2-((3-cyanobenzyl)oxy)-4-((3-(2,3-dihydrobenzo[b][1,4]dioxin-6-yl)-2-methylbenzyl)oxy)benzyl)-N-((1-(2-((2-(2,6-dioxopiperidin-3-yl)-1,3-dioxoisoindolin-4-yl)amino)-2-oxoethyl)piperidin-4-yl)methyl)-4-hydroxypyrrolidine-2-carboxamide], at PD-1/PD-L1 complex, the inhibition at 0.5 µM came to 23.7% and the inhibition at 5 µM was determined as 68.3%. The “Promega Assay (active / not active)” value in assay [1] is listed as “Not active”.
As for `Cc1c(COc2cc(OCc3cccc(C#N)c3)c(CN3C[C@H](O)C[C@@H]3C(=O)NCCCNc3cccc4c3C(=O)N(C3CCC(=O)NC3=O)C4=O)cc2Cl)cccc1-c1ccc2c(c1)OCCO2` (stereo partly drawn) [compound 2, (2R,4R)-1-(5-chloro-2-((3-cyanobenzyl)oxy)-4-((3-(2,3-dihydrobenzo[b][1,4]dioxin-6-yl)-2-methylbenzyl)oxy)benzyl)-N-(3-((2-(2,6-dioxopiperidin-3-yl)-1,3-dioxoisoindolin-4yl)amino)propyl)-4-hydroxypyrrolidine-2-carboxamide], at PD-1/PD-L1 complex, the inhibition at 0.5 µM is 3.9% and the inhibition at 5 µM stood at 71.7%. In addition, the “Promega Assay (active / not active)” value in assay [1] was “Not active”.
Consider `Cc1c(COc2cc(OCc3cccc(C#N)c3)c(CNCC3CCN(CC(=O)Nc4cccc5c4C(=O)N(C4CCC(=O)NC4=O)C5=O)CC3)cc2Cl)cccc1-c1ccc2c(c1)OCCO2` (centres unmarked) [compound 3, 2-(4-(((5-chloro-2-((3-cyanobenzyl)oxy)-4-((3-(2,3-dihydrobenzo[b][1,4]dioxin-6-yl)-2-methylbenzyl)oxy)benzyl)amino)methyl)piperidin-1-yl)-N-(2-(2,6-dioxopiperidin-3-yl)-1,3-dioxoisoindolin-4-yl)acetamide], for which, on PD-1/PD-L1 complex, the inhibition at 0.5 µM was found to be 77.8% and the inhibition at 5 µM came out at 97.1%. In addition, the IC50 (usually the midpoint of a concentration-inhibition curve) on PD-1/PD-L1 complex (six ligand concentrations, two dilution series) came out at 60 ± 2 nM. Besides, in assay [1], the “Promega Assay (active / not active)” value was “Not active”.
For the molecule `COc1nc(OCc2cccc(-c3ccccc3)c2C)ccc1C(NCCCNc1cccc2c1C(=O)N(C1CCC(=O)NC1=O)C2=O)c1nnnn1C(C)(C)C` (centres unmarked) [compound 7, 4-((3-(((1-(tert-butyl)-1H-tetrazol-5-yl)(2-methoxy-6-((2-methyl-[1,1′-biphenyl]-3-yl)methoxy)pyridin-3-yl)methyl)amino)propyl)amino)-2-(2,6-dioxopiperidin-3-yl)isoindoline-1,3-dione], on PD-1/PD-L1 complex, the inhibition at 0.5 µM turned out to be 0% and the inhibition at 5 µM came out at 35.2%. For the same molecule, in assay [1], the “Promega Assay (active / not active)” value is reported as “Not active”.
For `COc1cc(-c2cccc(-c3ccc4c(c3)OCCO4)c2Cl)ccc1COC(=O)CCC(=O)N1CCN(c2cccc3c2C(=O)N(C2CCC(=O)NC2=O)C3=O)CC1` (centres unmarked) [compound 10, (3′-(benzo-1,4-dioxan-6-yl)-2′-chloro-3-methoxy-[1,1′-biphenyl]-4-yl)methyl 4-(4-(2-(2,6-dioxopiperidin-3-yl)-1,3-dioxoisoindolin-4-yl)piperazin-1-yl)-4-oxobutanoate], at PD-1/PD-L1 complex, the inhibition at 0.5 µM was 29.4% and the inhibition at 5 µM came out at 60.6%. In assay [1], the “Promega Assay (active / not active)” value is given as “Not active”.
On the same counts, the results for `COc1cc(-c2cccc(-c3ccc4c(c3)OCCO4)c2Cl)ccc1COC(=O)CCCC(=O)N1CCN(c2cccc3c2C(=O)N(C2CCC(=O)NC2=O)C3=O)CC1` (centres unmarked) [compound 11] are 26.3%, 40% and “Not active”.
As for `Cc1c(COc2ccc3nc(CNC(=O)CCCC(=O)Nc4cccc5c4C(=O)N(C4CCC(=O)NC4=O)C5=O)c(NCc4cccc(C#N)c4)n3c2)cccc1-c1ccc(F)cc1` (centres unmarked) [compound 12, N1-((3-((3-cyanobenzyl)amino)-6-((4′-fluoro-2-methyl-[1,1′-biphenyl]-3-yl)methoxy)imidazo [1,2-a]pyridin-2-yl)methyl)-N5-(2-(2,6-dioxopiperidin-3-yl)-1,3-dioxoisoindolin-4-yl)glutaramide], on PD-1/PD-L1 complex, the inhibition at 0.5 µM stood at 40.9% and the inhibition at 5 µM came to 76.3%. Besides, the “Promega Assay (active / not active)” value in assay [1] was “Not active”.
On to “N1-(2-(2,6-dioxopiperidin-3-yl)-1,3-dioxoisoindolin-4-yl)-N5-((6-((2-methyl-[1,1′-biphenyl]-3-yl)methoxy)-3-((1-phenylethyl)amino)imidazo [1,2-a]pyridin-2-yl)methyl)glutaramide [compound 13]”, for which, at PD-1/PD-L1 complex, the “HTRF: Percentage of the Dissociated PD-1/PD-L1 Complex, 0.5 µM Ligand Conc.” value was found to be 30.4% and the “HTRF: Percentage of the Dissociated PD-1/PD-L1 Complex, 5 µM Ligand Conc.” value is recorded as 31.1%. Also, the “Promega Assay (active / not active)” value in assay [1] was “Not active”.
As for durvalumab, the “Activation of Jurkat ECs in the ICB assay” value in assay [1] (6 h co-culture, fold induction vs control) is “increase the activation of Jurkat ECs”.
